Data: patent publication US8759500B2, “Crystalline forms of a macrolide, and uses therefor” (Cempra Pharmaceuticals, Inc., priority 2010, dated 2014)
Converted amounts (≈) assume the structure as drawn.

Tests used:
[1] = Mean intrinsic dissolution studies; assay type: physicochemical
From the text: Mean intrinsic dissolution rates for exemplary batches of the two forms are shown in Table cC-2 for 3 batches of Form I (SD and % CV for one batch shown) and for Form II.

[2] = Stability of Form I and Form II under various storage conditions; assay type: physicochemical
From the text: In each case, the test material was first placed in Primary Packaging Material (LLDPE bag within a HMHDPE/LDPE/LDPE blend bag, and then heat sealed). The Primary Packaging Material was placed in Secondary Packaging Material (HDPE drum). All other impurities were less than 1% at each time point.

[3] = Oral pharmacokinetics in Balb/c mice, single dose 20 or 100 mg/kg; conditions: for AUCextrap: mean plasma; for AUC(0-inf) / AUC(0-t) / Cmax / Tmax / concentration at 0 h / concentration at 0.25 h / concentration at 0.5 h / concentration at 1 h / concentration at 2 h / concentration at 4 h / concentration at 6 h: Balb/c, mouse, plasma, po
Method: The doses were prepared as 2.0 mg/mL or 10.0 mg/mL in a vehicle of 0.5% (w/v) carboxymethyl cellulose in water and a dose volume of 10 mL/kg b.w. Blood samples were collected at various time points during the next 6 h post dose.

[4] = Pharmacokinetic comparison of forms by dosing vehicle
[5] = Aqueous solubility in water at indicated pH; conditions: water at adjusted pH, 26 °C, thermodynamic from solid
[6] = Further oral pharmacokinetic study in female Balb/c mice, 5, 10 and 20 mg/kg; conditions: mouse, plasma; for half-life: t½
[7] = 5 mg/kg, Mean, 5 mg/kg single oral dose
[8] = 5 mg/kg, Median, 5 mg/kg single oral dose
[9] = 10 mg/kg, Mean, 10 mg/kg single oral dose
[10] = 10 mg/kg, Median, 10 mg/kg single oral dose
[11] = 20 mg/kg, Mean, 20 mg/kg single oral dose
[12] = 20 mg/kg, Median, 20 mg/kg single oral dose

Mean intrinsic dissolution rate ([1]; 0.1N Hydrochloric Acid): 8.8 mg/min/cm^2 | Mean intrinsic dissolution rate ([1]; Acetate buffer, pH 4.5): 2.7 mg/min/cm^2 | Mean intrinsic dissolution rate ([1]; Phosphate buffer, pH 6.8): 0.01 mg/min/cm^2 | Assay (on hydrous basis) ([2]; 2-8° C., 3 Month): 93.4% | Chromatographic Purity ([2]; 2-8° C., 3 Month): 96.0 | Water ([2]; 2-8° C., 3 Month): 1.24% | Assay (on hydrous basis) ([2]; 2-8° C., 6 Month): 93.6% | Chromatographic Purity ([2]; 2-8° C., 6 Month): 96.8 | Water ([2]; 2-8° C., 6 Month): 1.39% | 3-Ethynylaniline ([2]; 2-8° C., 9 Month): 0.01% | Assay (on hydrous basis) ([2]; 2-8° C., 9 Month): 93.3% | Chromatographic Purity ([2]; 2-8° C., 9 Month): 96.4 | Water ([2]; 2-8° C., 9 Month): 1.38% | 3-Ethynylaniline ([2]; 2-8° C., 12 Month): 0.12% | Assay (on hydrous basis) ([2]; 2-8° C., 12 Month): 93% | Chromatographic Purity ([2]; 2-8° C., 12 Month): 96.8 | Water ([2]; 2-8° C., 12 Month): 1.37% | Assay (on hydrous basis) ([2]; 2-8° C., Initial): 93.9% | Chromatographic Purity ([2]; 2-8° C., Initial): 97.0 | Water ([2]; 2-8° C., Initial): 1.01% | Assay (on hydrous basis) ([2]; 25° C./60% RH, 3 Month): 93.6% | Chromatographic Purity ([2]; 25° C./60% RH, 3 Month): 96.0% | Water ([2]; 25° C./60% RH, 3 Month): 1.16% | Assay (on hydrous basis) ([2]; 25° C./60% RH, 6 Month): 93.7% | Chromatographic Purity ([2]; 25° C./60% RH, 6 Month): 96.7% | Water ([2]; 25° C./60% RH, 6 Month): 1.42% | 3-Ethynylaniline ([2]; 25° C./60% RH, 9 Month): 0.04% | Assay (on hydrous basis) ([2]; 25° C./60% RH, 9 Month): 93.2% | Chromatographic Purity ([2]; 25° C./60% RH, 9 Month): 96.2% | Water ([2]; 25° C./60% RH, 9 Month): 1.45% | 3-Ethynylaniline ([2]; 25° C./60% RH, 12 Month): 0.11% | Assay (on hydrous basis) ([2]; 25° C./60% RH, 12 Month): 93.0% | Chromatographic Purity ([2]; 25° C./60% RH, 12 Month): 96.1% | Water ([2]; 25° C./60% RH, 12 Month): 1.48% | Assay (on hydrous basis) ([2]; 25° C./60% RH, Initial): 93.9% | Chromatographic Purity ([2]; 25° C./60% RH, Initial): 97.0% | Water ([2]; 25° C./60% RH, Initial): 1.01% | Assay (on hydrous basis) ([2]; 40° C./75% RH, 3 Month): 93.0% | Chromatographic Purity ([2]; 40° C./75% RH, 3 Month): 95.9% | Water ([2]; 40° C./75% RH, 3 Month): 1.24% | Assay (on hydrous basis) ([2]; 40° C./75% RH, 6 Month): 93.1% | Chromatographic Purity ([2]; 40° C./75% RH, 6 Month): 96.5% | Water ([2]; 40° C./75% RH, 6 Month): 1.62% | 3-Ethynylaniline ([2]; 40° C./75% RH, 9 Month): 0.02% | Assay (on hydrous basis) ([2]; 40° C./75% RH, 9 Month): 92.5% | Chromatographic Purity ([2]; 40° C./75% RH, 9 Month): 96.2% | Water ([2]; 40° C./75% RH, 9 Month): 1.51% | 3-Ethynylaniline ([2]; 40° C./75% RH, 12 Month): 0.05% | Assay (on hydrous basis) ([2]; 40° C./75% RH, 12 Month): 92.3% | Chromatographic Purity ([2]; 40° C./75% RH, 12 Month): 97.1% | Water ([2]; 40° C./75% RH, 12 Month): 1.56% | Assay (on hydrous basis) ([2]; 40° C./75% RH, Initial): 93.9% | Chromatographic Purity ([2]; 40° C./75% RH, Initial): 97.0% | Water ([2]; 40° C./75% RH, Initial): 1.01% | change in color of the test material ([2]; during the entire study, all storage conditions): no observed change in color | AUCextrap ([3]; Female Balb/c mouse, 20 mg/kg oral, listed as CEM-101 Form II, 20 mg/kg): 12% | AUCextrap ([3]; Male Balb/c mouse, 20 mg/kg oral, listed as CEM-101 Form II, 20 mg/kg): 42% | AUCextrap ([3]; Male Balb/c mouse, 100 mg/kg oral): 33% | AUC(0-inf) ([3]; female, 20 mg/kg): 36000 ng·h/mL | AUC(0-t) ([3]; female, 20 mg/kg): 31600 ng·h/mL | Cmax ([3]; female, 20 mg/kg): 8800 ng/mL | Tmax ([3]; female, 20 mg/kg): 0.5 h | concentration at 0 h ([3]; female, 20 mg/kg): 0 ng/mL | concentration at 0.25 h ([3]; female, 20 mg/kg): 6200 ± 1600 ng/mL | concentration at 0.5 h ([3]; female, 20 mg/kg): 8800 ± 800 ng/mL | concentration at 1 h ([3]; female, 20 mg/kg): 7300 ± 900 ng/mL | concentration at 2 h ([3]; female, 20 mg/kg): 6100 ± 1000 ng/mL | concentration at 4 h ([3]; female, 20 mg/kg): 5500 ± 1700 ng/mL | concentration at 6 h ([3]; female, 20 mg/kg): 1300 ± 500 ng/mL | AUC(0-t) ([3]; female, 100 mg/kg): 55000 ng·h/mL | Cmax ([3]; female, 100 mg/kg): 10500 ng/mL | Tmax ([3]; female, 100 mg/kg): 4 h | concentration at 0 h ([3]; female, 100 mg/kg): 0 ng/mL | concentration at 0.25 h ([3]; female, 100 mg/kg): 7300 ± 900 ng/mL | concentration at 0.5 h ([3]; female, 100 mg/kg): 10500 ± 1400 ng/mL | concentration at 1 h ([3]; female, 100 mg/kg): 9600 ± 2200 ng/mL | concentration at 2 h ([3]; female, 100 mg/kg): 9500 ± 2200 ng/mL | concentration at 4 h ([3]; female, 100 mg/kg): 10200 ± 1000 ng/mL | concentration at 6 h ([3]; female, 100 mg/kg): 7800 ± 1100 ng/mL | AUC(0-inf) ([3]; male, 20 mg/kg): 49000 ng·h/mL | AUC(0-t) ([3]; male, 20 mg/kg): 29000 ng·h/mL | Cmax ([3]; male, 20 mg/kg): 6730 ng/mL | Tmax ([3]; male, 20 mg/kg): 0.5 h | concentration at 0 h ([3]; male, 20 mg/kg): 0 ng/mL | concentration at 0.25 h ([3]; male, 20 mg/kg): 4100 ± 800 ng/mL | concentration at 0.5 h ([3]; male, 20 mg/kg): 6700 ± 600 ng/mL | concentration at 1 h ([3]; male, 20 mg/kg): 5900 ± 800 ng/mL | concentration at 2 h ([3]; male, 20 mg/kg): 5600 ± 400 ng/mL | concentration at 4 h ([3]; male, 20 mg/kg): 4900 ± 1100 ng/mL | concentration at 6 h ([3]; male, 20 mg/kg): 2900 ± 600 ng/mL | AUC(0-inf) ([3]; male, 100 mg/kg): 99000 ng·h/mL | AUC(0-t) ([3]; male, 100 mg/kg): 66000 ng·h/mL | Cmax ([3]; male, 100 mg/kg): 10600 ng/mL | Tmax ([3]; male, 100 mg/kg): 4 h | concentration at 0 h ([3]; male, 100 mg/kg): 0 ng/mL | concentration at 0.25 h ([3]; male, 100 mg/kg): 6800 ± 700 ng/mL | concentration at 0.5 h ([3]; male, 100 mg/kg): 6900 ± 1100 ng/mL | concentration at 1 h ([3]; male, 100 mg/kg): 8700 ± 2700 ng/mL | concentration at 2 h ([3]; male, 100 mg/kg): 9300 ± 1200 ng/mL | concentration at 4 h ([3]; male, 100 mg/kg): 10600 ± 1400 ng/mL | concentration at 6 h ([3]; male, 100 mg/kg): 7200 ± 800 ng/mL | difference in measured pharmacokinetic parameters, including Cmax, Tmax, and AUC, among Form I and Form II ([4]; dosed in a vehicle in which the compound is present as a solid): no statistical difference | difference in measured pharmacokinetic parameters, including Cmax, Tmax, and AUC, among Form I and Form II ([4]; dosed in a vehicle in which the compound is well solubilized): no observed difference | solubility at 6 h ([5]; pH 1.2, simulated gastric fluid): 3640 µg/mL (≈ 4310 µM) | solubility at 6 h ([5]; pH 4, aqueous buffer): 361 µg/mL (≈ 427 µM) | solubility at 6 h ([5]; pH 7.4, aqueous buffer): 305 µg/mL (≈ 361 µM) | solubility at 6 h ([5]; pH 9.2, aqueous buffer): 331 µg/mL (≈ 392 µM) | AUC(0-t) ([6]; 5 mg/kg, AUC 0-24, Mean, 5 mg/kg single oral dose): 4690 ng·h/mL | AUC(0-t) ([6]; 5 mg/kg, AUC 0-24, Median, 5 mg/kg single oral dose): 4310 ng·h/mL | Cmax [6, 7]: 1850 ng/mL | Cmax [6, 8]: 1800 ng/mL | Tmax [6, 7]: 1.2 h | Tmax [6, 8]: 1 h | half-life [6, 7]: 70.2 min | half-life [6, 8]: 67.2 min | AUC(0-t) ([6]; 10 mg/kg, AUC 0-24, Mean, 10 mg/kg single oral dose): 7580 ng·h/mL | AUC(0-t) ([6]; 10 mg/kg, AUC 0-24, Median, 10 mg/kg single oral dose): 7590 ng·h/mL | Cmax [6, 9]: 2630 ng/mL | Cmax [6, 10]: 2420 ng/mL | Tmax [6, 9]: 1.25 h | Tmax [6, 10]: 1 h | half-life [6, 9]: 85.2 min | half-life [6, 10]: 91.8 min | AUC(0-t) ([6]; 20 mg/kg, AUC 0-24, Mean, 20 mg/kg single oral dose): 20100 ng·h/mL | AUC(0-t) ([6]; 20 mg/kg, AUC 0-24, Median, 20 mg/kg single oral dose): 21700 ng·h/mL | Cmax [6, 11]: 5360 ng/mL | Cmax [6, 12]: 5660 ng/mL | Tmax [6, 11]: 1.1 h | Tmax [6, 12]: 1 h | half-life [6, 11]: 148 min | half-life [6, 12]: 148 min
Structure (SMILES): CC[C@H]1OC(=O)[C@@](C)(F)C(=O)[C@H](C)[C@@H](O[C@@H]2O[C@H](C)C[C@H](N(C)C)[C@H]2O)[C@](C)(OC)C[C@@H](C)C(=O)[C@H](C)[C@H]2N(CCCCn3cc(-c4cccc(N)c4)nn3)C(=O)O[C@]12C [Form II, solithromycin]
